# Measured values from patent publication US5648366A, “Substituted pyrrolidin-3-yl-alkyl-piperidines” (Merrell Pharmaceuticals Inc., priority 1995, dated 1997).
# Target: T1, NK2 receptor (Bos taurus, UniProt P05363)
# T1 construct: expressed in transfected cells; host or cells: SKLKB82#3 cells (murine B82 fibroblasts by own knowledge)
# T1 sequence (P05363 1-384): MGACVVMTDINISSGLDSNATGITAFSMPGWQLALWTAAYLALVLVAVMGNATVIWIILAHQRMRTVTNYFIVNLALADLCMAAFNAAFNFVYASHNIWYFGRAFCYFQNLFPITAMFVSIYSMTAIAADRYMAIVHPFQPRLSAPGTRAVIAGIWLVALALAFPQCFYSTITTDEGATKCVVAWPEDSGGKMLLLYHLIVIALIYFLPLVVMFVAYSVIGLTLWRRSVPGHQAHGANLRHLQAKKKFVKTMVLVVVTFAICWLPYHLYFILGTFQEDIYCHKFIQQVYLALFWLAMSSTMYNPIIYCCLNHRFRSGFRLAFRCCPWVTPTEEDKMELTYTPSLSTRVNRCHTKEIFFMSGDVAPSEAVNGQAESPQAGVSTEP
# Test: Antagonism of NK2 receptor mediated (NKA-induced) phosphatidylinositol turnover in SKLKB82#3 cells
# Type: cell-based
# Protocol: ANTAGONISM OF NK1 AND NK2 RECEPTOR MEDIATED PHOSPHATID[…]
# Tachykinin-mediated inositol phosphate accumulation was measured in UC11 or SKLKB82#3 cells in the presence and absence of NK1 or NK2 receptor antagonists, respectively. Tissues were incubated in Krebs-Henseleit buffer at 37° C. with 95% O2 -5% CO2 gassing. Tissues were then incubated with fresh buffer containing 100 μCi of myo-[2-^3 H(N)] inositol at 37° C. for 60 min with gentle gassing. After washing twice in 5 ml room temperature buffer containing 10 mM LiCl, tissues were incubated for 30 min at room temperature with a buffer change at 15 min. Buffer was removed and Krebs-Henseleit buffer (containing 40 μg/ml bacitracin, 4 μg/ml each of leupeptin and chymostatin, 0.1% bovine serum albumin and 10 mM each of thiorphan and LiCl) added. After 15 min, SP was added to UC11 cells or NKA to SKLKB82#3 cells at various concentrations to start the reaction. After incubation for 60 min at room temperature the reaction was terminated by addition of 930 μl chloroform: methanol (1:2 by volume) to each tube, followed by 310 μl chloroform and 310 μl doubly distilled water. Samples were vortexed, centrifuged, and 0.9 ml of the aqueous (top) phase removed and added to 2 ml ddH2 O. The mixture was vortexed and loaded onto a 50% Bio-Rad AG 1-X8 (formate form, 100-200 mesh) exchange column (Bio-Rad Laboratories, Hercules, Calif.). The columns were washed, in order, with: 1) 10 ml doubly distilled water, 2) 5 ml of 5 mM disodium tetraborate/60 mM sodium formate, and 3) 5 ml of 1M ammonium formate/0.1M formic acid. The third elution was collected and 1 ml counted in 7 ml scintillation fluid. A 50 μl aliquot of the organic (bottom) phase was removed, dried in a scintillation vial and counted in 7 ml scintillation fluid.
# The ratio of DPM in the aqueous phase aliquot (total inositol phosphates) to the DPM in the 50 μl organic phase aliquot (total [^3 H]inositol incorporated) was calculated for each sample. Data are expressed as a percent of agonist-induced accumulation of [^3 H]-inositol phosphates over basal levels. The ratios in the presence of test compound and/or standards were compared to the ratios for control samples (i.e. no stimulating agonist). Dose-response graphs were constructed and the abilities of the test compounds to inhibit tachykinin-induced phosphatidyinositol turnover determined with the aid of a computer program. […] Data is expressed as percent stimulation of total inositol phosphate accumulation over basal levels and normalized to the maximum response produced by SP. […] Schild analysis is performed using dose response curves (such as those presented in FIGS. 1a and 1b) to obtain a value indicative of the strength of a competitive antagonist and is expressed as the pA2, which is the negative logarithm of the molar concentration of antagonist which reduces the effect of a dose of agonist to one-half of that expected at the dose of agonist.
structure (smiles),measurement,setting,value
"COc1cc(C(=O)N2CCC(CCN3CCC(C(N)=O)(c4ccccc4)CC3)(c3ccc(Cl)c(Cl)c3)C2)cc(OC)c1OC (centres unmarked) [Example 3, 1-[2-[3-(3,4-dichloro-phenyl)-1-(3,4,5-trimethoxy-benzoyl)-pyrrolidin-3-yl]-ethyl]-4-phenyl-piperidine-4-carboxylic acid amide]","antagonism of NKA induced PI turnover (in words, FIG. 1b)",SKLKB82#3 cells,dose related antagonism
same,"agonist activity, PI turnover in SKLKB82#3 cells (in words)",compound alone,no agonist activity
